24 molecules from patent US20080132505A1 (Glaxo Group Limited, priority 2004, published 2008) can be followed below.

Like-named read-outs stand apart in the source and are kept apart here.

The assay concerns the target human cannabinoid CB2 receptor (Homo sapiens, UniProt P34972). In words: Cannabinoid CB2 receptor agonist activity (yeast reporter assay, FDGlu fluorescence). It is filed as cell-based. To be noted: for Emax: read-out: efficacy value (Emax relative to HU210) at the cloned human cannabinoid CB2 receptor. The method in brief: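 S. cerevisiae MMY23 expressing human CB2 with a Gpa1/Gαi3 chimeric G-protein, grown 24 h at 30 °C with agonist (1% DMSO) in selective media containing 10 mM 3-aminotriazole and FDGlu, pH 7.0. Fluorescein fluorescence (485/535 nm) fitted by four-parameter curve; Emax and EMR relative to HU210.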

[1] abbreviates: EC50 value at the cloned human cannabinoid CB2 receptor.
Setting [2] is: read-out: EC50 value at the cloned human cannabinoid CB2 receptor.

human cannabinoid CB2 receptor, sequence (P34972 whole entry): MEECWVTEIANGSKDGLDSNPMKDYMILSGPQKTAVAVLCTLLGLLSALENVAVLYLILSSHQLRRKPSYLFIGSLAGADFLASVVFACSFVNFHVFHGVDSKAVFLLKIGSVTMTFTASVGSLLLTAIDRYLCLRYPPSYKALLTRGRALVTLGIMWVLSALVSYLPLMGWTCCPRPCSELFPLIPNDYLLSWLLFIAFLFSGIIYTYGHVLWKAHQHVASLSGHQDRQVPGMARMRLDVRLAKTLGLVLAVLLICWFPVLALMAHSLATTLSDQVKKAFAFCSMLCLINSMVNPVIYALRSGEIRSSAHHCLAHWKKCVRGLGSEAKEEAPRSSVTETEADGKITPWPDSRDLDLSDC

With `O=C(NCC1CCOCC1)c1cnc(Nc2ccc(Br)cc2Cl)nc1C(F)(F)F` [Example 234, 2-(2-Chloro-4-bromo-phenylamino)-4-trifluoromethyl-pyrimidine-5-carboxylic acid (tetrahydro-pyran-4-ylmethyl)-amide], the Emax was more than 50%. Under setting [1], this molecule registered a concentration giving a half-maximal response (EC50) of 20 to 300 nM.

Under setting [1], `O=C(NCc1ccc(F)cc1)c1cnc(Nc2cccc(Cl)c2Cl)nc1C(F)(F)F` [Example 364, 2-(2,3-Dichloro-phenylamino)-4-trifluoromethyl-pyrimidine-5-carboxylic acid 4-fluoro-benzylamide] came in with an EC50 of 20 to 300 nM.

On to `O=C(NCc1ccc(F)cc1F)c1cnc(Nc2cccc(Cl)c2)nc1C(F)(F)F` [Example 368, 2-(3-Chloro-phenylamino)-4-trifluoromethyl-pyrimidine-5-carboxylic acid 2,4-difluoro-benzylamide], for which, under setting [1], the EC50 fell in the range of 20 to 300 nM.

In the case of `O=C(NCC1CCC1)c1cnc(Nc2ccc(Br)cc2F)nc1C(F)(F)F` [Example 229, 2-(2-Fluoro-4-bromo-phenylamino)-4-trifluoromethyl-pyrimidine-5-carboxylic acid cyclobutylmethyl-amide], the Emax was more than 50%. Under setting [1], this molecule yielded an EC50 of 20 to 300 nM.

Regarding `O=C(NCC1CCCC1)c1cnc(Nc2cccc(F)c2)nc1C(F)(F)F` [Example 38, 2-(3-Fluorophenylamino)-4-trifluoromethylpyrimidine-5-carboxylic acid cyclopentylmethyl-amide], the Emax is more than 50%. The molecule further yielded an EC50 under setting [1] of 20 to 300 nM.

As for `O=C(NCC1CCOCC1)c1cnc(Nc2cc(Cl)ccc2Cl)nc1C(F)(F)F` [Example 35, 2-(2,5-Dichlorophenylamino)-4-trifluoromethylpyrimidine-5-carboxylic acid (tetrahydropyran-4-ylmethyl)-amide], the Emax is more than 50%. The same molecule displayed an EC50 under setting [1] of 20 to 300 nM.

As to `O=C(NC1CC1)c1cnc(Nc2cccc(Cl)c2)nc1C(F)(F)F` [Example 209, 2-(3-Chlorophenylamino)-4-trifluoromethyl-pyrimidine-5-carboxylic acid cyclopropylamide], the Emax is more than 50%. Also, the EC50 under setting [1] was in the range of 20 to 300 nM.

Consider `O=C(NC1CCC1)c1cnc(Nc2ccc(Cl)cc2Cl)nc1C(F)(F)F` [Example 49, 2-(2,4-Dichlorophenylamino)-4-trifluoromethylpyrimidine-5-carboxylic acid cyclobutylamide], for which the maximal effect (Emax) was more than 50%. This molecule returned an EC50 under setting [1] of 20 to 300 nM.

Take `CC(C)(C)c1ccc(Nc2ncc(C(=O)NCc3ccccc3)c(C(F)(F)F)n2)cc1` [2-(4-tert-butyl-phenylamino)-4-trifluoromethyl-pyrimidine-5-carboxylic acid benzylamide]: the “activity in the CB2 assay described herein” value is “inactive”.

In the case of `N#Cc1ccc(Nc2ncc(C(=O)NCC3CCCCC3)c(C(F)(F)F)n2)cc1` [Example 174, 2-(4-Cyanophenylamino)-4-trifluoromethyl-pyrimidine-5-carboxylic acid cyclohexylmethyl-amide], the EC50 under setting [2] lay within 20 to 300 nM.

For the molecule `O=C(NCc1ccnc(F)c1)c1cnc(Nc2c(Cl)cccc2Cl)nc1C(F)(F)F` [Example 358, 2-(2,6-Dichloro-phenylamino)-4-trifluoromethyl-pyrimidine-5-carboxylic acid (2-fluoro-pyridin-4-ylmethyl)-amide], under setting [1], the EC50 lay in the range of 20 to 300 nM.

`Cc1cccc(Nc2cc(C(C)C)c(C(=O)NCc3ccc(F)cc3)cn2)c1C#N` [Example 395, 6-(2-Cyano-3-methyl-phenylamino)-N-(4-fluoro-benzyl)-4-isopropyl-nicotinamide]: the Emax was more than 50%.

The molecule `CN(Cc1ccccc1)C(=O)c1cnc(Nc2cccc(Cl)c2)nc1C(F)(F)F` [Example 268, 2-(3-Chlorophenylamino)-4-trifluoromethylpyrimidine-5-carboxylic acid N-benzyl-N-methylamide] had a concentration giving a half-maximal response (EC50) under setting [1] of 20 to 300 nM.

On to `Cc1cc(Cl)ccc1Nc1ncc(C(=O)NCC2CCCCC2)c(C(F)(F)F)n1` [Example 94, 2-(4-Chloro-2-methyl-phenylamino)-4-trifluoromethyl-pyrimidine-5-carboxylic acid cyclohexylmethyl-amide], for which the maximal effect (Emax) is more than 50%. The EC50 under setting [1] is 300 to 1000 nM.

Consider `O=C(NCc1ccncc1)c1cnc(Nc2ccc(Cl)cc2Cl)nc1C(F)(F)F` [Example 282, 2-(2,4-Dichlorophenylamino)-4-trifluoromethylpyrimidine-5-carboxylic acid (pyridin-4-ylmethyl)amide], for which, under setting [1], the concentration giving a half-maximal response (EC50) fell in the range of 20 to 300 nM.

As for `O=C(NCC1(O)CCOCC1)c1cnc(Nc2cccc(Br)c2)nc1C(F)(F)F` [Example 87, 2-(3-Bromophenyl-amino)-4-trifluoromethyl-pyrimidine-5-carboxylic acid (4-hydroxytetrahydropyran-4-ylmethyl)amide], the Emax was more than 50%. Under setting [1], this molecule came in with a half-maximal effective concentration (EC50) of 300 to 1000 nM.

Regarding `O=C(NC1CCC1)c1cnc(Nc2cc(Cl)cc(Cl)c2)nc1C(F)(F)F` [Example 52, 2-(3,5-Dichlorophenylamino)-4-trifluoromethylpyrimidine-5-carboxylic acid cyclobutylamide], the Emax was more than 50%. This molecule also yielded a half-maximal effective concentration (EC50) under setting [1] of 20 to 300 nM.

Take `Cc1ccc(Cl)cc1Nc1ncc(C(=O)NCC2CCCC2)c(C(F)(F)F)n1` [Example 183, 2-(5-Chloro-2-methylphenylamino)-4-trifluoromethyl-pyrimidine-5-carboxylic acid (cyclopentylmethyl)-amide]: the maximal response (Emax) is more than 50%. The same molecule registered a 50% effective concentration (EC50) under setting [1] of 20 to 300 nM.

With `O=C(NCC1CCOCC1)c1cnc(Nc2ccc(F)cc2F)nc1C(F)(F)F` [Example 98, 2-(2,4-Difluorophenylamino)-4-trifluoromethyl-pyrimidine-5-carboxylic acid (tetrahydro-pyran-4-ylmethyl)-amide], the Emax was more than 50%. Also, the EC50 under setting [1] was in the range of 300 to 1000 nM.

For `O=C(NC1CCCC1)c1cnc(Nc2cc(Cl)cc(Cl)c2)nc1C(F)(F)F` [Example 75, 3,5-Dichlorophenylamino-4-trifluoromethyl-pyrimidine-5-carboxylic acid cyclopentylamide], the Emax is more than 50%. Under setting [1], this molecule yielded an EC50 of 300 to 1000 nM.

As for `O=C(NCC1CCC1)c1cnc(Nc2ccc(Cl)cc2Cl)nc1C(F)(F)F` [Example 201, 2-(2,4-Dichlorophenylamino)-4-trifluoromethyl-pyrimidine-5-carboxylic acid cyclobutylmethyl-amide], the Emax is more than 50%. Under setting [1], this molecule yielded an EC50 of 20 to 300 nM.

Regarding `O=C(NCC1CCOCC1)c1cnc(Nc2cccc(Cl)c2F)nc1C(F)(F)F` [Example 212, 2-(2-Fluoro-3-chloro-phenylamino)-4-trifluoromethyl-pyrimidine-5-carboxylic acid (tetrahydro-pyran-4-ylmethyl)-amide], the EC50 under setting [2] fell in the range of 20 to 300 nM.

As for `CN(Cc1ccccc1)C(=O)c1cnc(Nc2c(Cl)cccc2Cl)nc1C(F)(F)F` [Example 275, 2-(2,6-Dichlorophenylamino)-4-trifluoromethylpyrimidine-5-carboxylic acid N-benzyl-N-methylamide], under setting [1], the half-maximal effective concentration (EC50) was 20 to 300 nM.

Take `O=C(NCc1ccccc1Br)c1cnc(Nc2cccc(Cl)c2)nc1C(F)(F)F` [2-(3-Chloro-phenylamino)-4-trifluoromethyl-pyrimidine-5-carboxylic acid 2-bromo-benzylamide]: the “activity in the CB2 assay described herein” value is “inactive”.
